{"source": "patent US9487479B2", "about": "“Small molecule inhibitors of N-terminus activation of the androgen receptor” (The University of British Columbia, priority 2008, dated 2016)", "key": {"[1]": {"biological_target": "T1, AR NTD-Gal4DBD chimera protein (Gal4DBD-AR1-558) (Homo sapiens, UniProt P10275)", "T1 construct": "co-transfected with the expression vector for Gal4DBD-AR1-558; expressed in transfected cells; host or cells: LNCaP cells", "T1 sequence (P10275 1-558)": "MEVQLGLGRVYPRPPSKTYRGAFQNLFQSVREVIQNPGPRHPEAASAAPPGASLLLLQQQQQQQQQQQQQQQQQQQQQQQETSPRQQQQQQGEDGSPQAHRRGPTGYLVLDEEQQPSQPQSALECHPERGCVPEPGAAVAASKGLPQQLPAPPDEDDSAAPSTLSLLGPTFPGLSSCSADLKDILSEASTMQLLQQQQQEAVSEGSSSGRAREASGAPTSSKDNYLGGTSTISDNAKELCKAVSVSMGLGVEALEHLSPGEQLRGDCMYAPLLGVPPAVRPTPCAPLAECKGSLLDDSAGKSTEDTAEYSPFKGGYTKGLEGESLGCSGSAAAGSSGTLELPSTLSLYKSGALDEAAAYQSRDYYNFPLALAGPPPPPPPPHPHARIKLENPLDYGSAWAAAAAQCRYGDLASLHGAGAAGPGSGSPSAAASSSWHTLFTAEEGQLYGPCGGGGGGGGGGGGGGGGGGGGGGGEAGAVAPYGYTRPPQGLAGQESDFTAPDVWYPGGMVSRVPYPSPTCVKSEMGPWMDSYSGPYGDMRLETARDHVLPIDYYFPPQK", "test": "FSK-induced transactivation of the AR NTD (Gal4-luciferase reporter in LNCaP cells)", "type": "cell-based", "conditions": "5 μg/ml, 1 hr pretreatment, FSK 50 μM for 24 h", "procedure": "Sintokamide A (CB3.1) (5 μg/ml) was tested for its ability to inhibit the AR NTD. LNCaP cells were co-transfected with the expression vector for Gal4DBD-AR1-558 and the complimentary 5XGal4UAS-luciferase reporter. Induction of this reporter by FSK is a measure of transactivation of the Gal4DBD-AR1-558 fusion protein (Sadar 1999 J. Biol. Chem. 274, 7777-7783).\nTo determine if CB3.1 blocked transactivation of the AR NTD, LNCaP cells were transfected with the plasmids for the AR NTD-Gal4DBD chimera protein and the Gal4-luciferase reporter and pretreated for 1 hr with CB3.1 (5 μg/ml) prior to addition of forskolin (FSK 50 μM) for an additional 24 h (see: Sadar et al. (1999) J. Biol. Chem. 274:7777-83)."}, "[2]": {"biological_target": "T2, androgen receptor (AR) (Homo sapiens, UniProt P10275, T878A)", "T2 construct": "endogenous in cells; host or cells: LNCaP human prostate cancer cells", "T2 sequence (P10275 1-920 T878A)": "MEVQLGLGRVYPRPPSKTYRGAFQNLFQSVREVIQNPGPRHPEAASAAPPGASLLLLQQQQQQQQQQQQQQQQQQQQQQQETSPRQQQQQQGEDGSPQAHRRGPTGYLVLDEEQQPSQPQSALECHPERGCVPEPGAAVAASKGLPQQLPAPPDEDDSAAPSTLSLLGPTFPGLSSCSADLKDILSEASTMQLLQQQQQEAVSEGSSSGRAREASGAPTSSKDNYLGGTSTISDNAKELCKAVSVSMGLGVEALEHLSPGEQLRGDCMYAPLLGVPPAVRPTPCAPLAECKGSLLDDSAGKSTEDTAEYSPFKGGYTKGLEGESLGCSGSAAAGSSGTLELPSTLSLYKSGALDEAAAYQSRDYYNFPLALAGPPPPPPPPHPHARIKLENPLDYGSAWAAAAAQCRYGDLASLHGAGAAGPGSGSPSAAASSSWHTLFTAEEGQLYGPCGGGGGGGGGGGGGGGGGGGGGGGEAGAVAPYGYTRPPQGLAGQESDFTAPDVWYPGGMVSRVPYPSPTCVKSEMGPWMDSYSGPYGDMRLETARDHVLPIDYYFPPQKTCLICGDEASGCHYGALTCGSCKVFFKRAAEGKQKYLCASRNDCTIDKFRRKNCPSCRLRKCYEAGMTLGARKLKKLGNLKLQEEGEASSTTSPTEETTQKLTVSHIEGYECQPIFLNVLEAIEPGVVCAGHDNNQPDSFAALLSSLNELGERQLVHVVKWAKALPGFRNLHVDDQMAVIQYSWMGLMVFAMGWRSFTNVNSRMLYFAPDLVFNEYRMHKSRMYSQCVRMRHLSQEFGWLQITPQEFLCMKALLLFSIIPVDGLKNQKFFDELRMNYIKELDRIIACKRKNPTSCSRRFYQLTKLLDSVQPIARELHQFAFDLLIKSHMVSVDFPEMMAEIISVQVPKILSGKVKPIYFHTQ", "test": "PSA (6.1 kb)-luciferase reporter assay in LNCaP cells", "type": "cell-based", "conditions": "5 μg/ml", "procedure": "White bars represent no steroid (ethanol control). Wherein glucocorticoid receptor (GR) and progesterone receptor (PR).\nThe cells were harvested 24 hours later and analyzed for luciferase activity. The data is normalized to protein that was measured using Bradford assay.\nSequence similarities of amino acids in the AR with related human steroid receptors (glucocorticoid receptor (GR) and progesterone receptor (PR)) are significant in some domains such as the DNA-binding-domain (DBD). Although the AR-NTD shares less than 15% homology with the PR and GR, these receptors do interact with some of the same proteins such as SRC-1 (steroid receptor coactivator-1). […] Cells were co-transfected with expression plasmids for full-length hGR and PRβ and the relative reporter (i.e., pGR-Luc or PRE-E1b-Luc reporters). Cells were then treated with ethanol vehicle, dexamethasone (GR), 4-pregnene-3,20 dione (progesterone) (PR) followed by measurement of luciferase activity.\nActivation of the endogenous AR was measured in LNCaP human prostate cancer cells by measuring an androgen-responsive reporter containing androgen response elements (AREs). The PSA (6.1 kb)-luciferase reporter gene construct contains several well-characterized AREs and is induced by androgen."}}}
{"smiles": "CCC(=O)N[C@H](C[C@H](C)C(Cl)(Cl)Cl)C(=O)N1C(=O)C=C(OC)[C@@H]1C[C@H](C)C(Cl)Cl", "note": "[CB3.1, Sintokamide A]", "values": [{"measurement": "FSK-induced transactivation of the AR NTD", "setting": "[1]", "value": "reduced FSK-induced transactivation of the AR NTD to baseline levels"}, {"measurement": "inhibition of R1881 induction of PSA (6.1)-luciferase", "setting": "[2]; 1 hour pretreatment, R1881 1 nM, 24 hours", "value": "inhibition"}, {"measurement": "AR activity measured with the PSA (6.1) luciferase reporter", "setting": "[2]; steroid 10 nM, 24 h", "value": "strongly inhibited"}]}
